Drawing on US20250376464A1 (Trawsfynydd Therapeutics, Inc., priority 2022, published 2025), this text covers IC50 for 13 compounds.

The assay has as its target SARS-CoV2-Mpro (Severe acute respiratory syndrome coronavirus 2 (2019-nCoV) (SARS-CoV-2), UniProt P0DTD1). As to the kind of experiment: Primary assay: SARS-CoV2-Mpro enzymatic activity inhibition. It counts as biochemical. As to conditions: enzyme preincubated with compound for 20 min; slope of linear portion of signal. The procedure:
Example A. Primary Assay Used to Determine Potency of SARS-CoV2-Mpro Enzymatic Activity Inhibition
• (1) Deliver 2× Enzyme • (2) Deliver buffer into No Enzyme wells • (3) Deliver compounds in 100% DMSO by using Acoustic technology (Echo550; nanoliter range) • (4) Incubate for 20 min • (5) Deliver 2× Substrate to initiate the reaction • (6) Spin & shake, start measuring in EnVision at rt; 5 min interval for 25 (2 hours) • (7) Analyze data by taking slope (signal/time) of linear portion of measurement • (8) Slope is calculated by using Excel, and curve fits are performed using Prism software.
The % inhibition was then used to calculate the IC50 values. The IC50 values are shown in Table A, wherein “A” corresponds to IC50<10.0 nm, “B” corresponds to 10.0 nm≤IC50<50.0 nm, “C” corresponds to 50.0 nm≤IC50<100.0 nm, “D” corresponds to 100.0 nm≤IC50<500.0 nm, and “E” corresponds to 500.0 nm≤IC50<1000.0 nm, and “F” corresponds to 1000.0 nm≤IC50.
Regarding `CCOC(=O)N[C@@H](CC(C)C)C(=O)N1C[C@H]2C([C@H]1C(=O)N[C@H](C#N)CC1C(=O)Nc3ccccc31)C2(C)C` (stereo in doubt) [Compound 246, ethyl N-[(1S)-1-[(1S,2S,5S)-2-[[(1S)-1-cyano-2-(2-oxoindolin-3-yl)ethyl]carbamoyl]-6,6-dimethyl-3-azabicyclo[3.1.0]hexane-3-carbonyl]-3-methyl-butyl]carbamate], the IC50 lay in the range of 10 to 50 nM.

Take `CC(C)(C)[C@H](NC(=O)C(F)(F)F)C(=O)N1C[C@H]2C([C@H]1C(=O)N[C@H](C#N)Cn1c(=O)[nH]c3ccccc31)C2(C)C` (stereo in doubt) [Compound 301, (1R,2S,5S)—N—((S)-1-cyano-2-(2-oxo-2,3-dihydro-1H-benzo[d]imidazol-1-yl)ethyl)-3-((S)-3,3-dimethyl-2-(2,2,2-trifluoroacetamido)butanoyl)-6,6-dimethyl-3-azabicyclo[3.1.0]hexane-2-carboxamide]: the half-maximal inhibitory concentration (IC50) was at least 1000 nM.

For `CC(C)(C)[C@H](NC(=O)C(F)(F)F)C(=O)N1C[C@H]2[C@H]([C@H]1C(=O)N[C@H](C#N)CC1C(=O)Nc3ccc(Cl)cc31)C2(C)C` (stereo partly drawn) [Compound 218, (1S,2S,5S)-N-[(1S)-2-(5-chloro-2-oxo-indolin-3-yl)-1-cyano-ethyl]-3-[(2S)-3,3-dimethyl-2-[(2,2,2-trifluoroacetyl)amino]butanoyl]-6,6-dimethyl-3-azabicyclo[3.1.0]hexane-2-carboxamide], the concentration for half-maximal inhibition (IC50) fell in the range of 10 to 50 nM.

`CC(C)(C)[C@H](NC(=O)C(F)(F)F)C(=O)N1C[C@H]2[C@H]([C@H]1C(=O)N[C@H](C#N)CC1C(=O)Nc3cc(Cl)ccc31)C2(C)C` (stereo partly drawn) [Compound 219, (1S,2S,5S)-N-[(1S)-2-(6-chloro-2-oxo-indolin-3-yl)-1-cyano-ethyl]-3-[(2S)-3,3-dimethyl-2-[(2,2,2-trifluoroacetyl)amino]butanoyl]-6,6-dimethyl-3-azabicyclo[3.1.0]hexane-2-carboxamide]: the IC50 lay within 10 to 50 nM.

`Cc1ccc2c(c1)C(C[C@@H](C#N)NC(=O)[C@@H]1[C@H]3[C@H](CN1C(=O)[C@@H](NC(=O)C(F)(F)F)C(C)(C)C)C3(C)C)C(=O)N2` (stereo partly drawn) [Compound 220, (1S,2S,5S)-N-[(1S)-1-cyano-2-(5-methyl-2-oxo-indolin-3-yl)ethyl]-3-[(2S)-3,3-dimethyl-2-[(2,2,2-trifluoroacetyl)amino]butanoyl]-6,6-dimethyl-3-azabicyclo[3.1.0]hexane-2-carboxamide]: the IC50 lay in the range of 10 to 50 nM.

For the compound `COc1ccc2c(c1)C(C[C@@H](C#N)NC(=O)[C@@H]1[C@H]3[C@H](CN1C(=O)[C@@H](NC(=O)C(F)(F)F)C(C)(C)C)C3(C)C)C(=O)N2` (stereo partly drawn) [Compound 221, (1S,2S,5S)-N-[(1S)-1-cyano-2-(5-methoxy-2-oxo-indolin-3-yl)ethyl]-3-[(2S)-3,3-dimethyl-2-[(2,2,2-trifluoroacetyl)amino]butanoyl]-6,6-dimethyl-3-azabicyclo[3.1.0]hexane-2-carboxamide], the IC50 is under 10 nM.

Regarding `COc1ccc2c(c1)NC(=O)C2C[C@@H](C#N)NC(=O)[C@@H]1[C@H]2[C@H](CN1C(=O)[C@@H](NC(=O)C(F)(F)F)C(C)(C)C)C2(C)C` (stereo partly drawn) [Compound 222, (1S,2S,5S)-N-[(1S)-1-cyano-2-(6-methoxy-2-oxo-indolin-3-yl)ethyl]-3-[(2S)-3,3-dimethyl-2-[(2,2,2-trifluoroacetyl)amino]butanoyl]-6,6-dimethyl-3-azabicyclo[3.1.0]hexane-2-carboxamide], the half-inhibitory concentration (IC50) lay in the range of 10 to 50 nM.

In the case of `CC(C)(C)[C@H](NC(=O)C(F)(F)F)C(=O)N1C[C@H]2[C@H]([C@H]1C(=O)NC(C#N)CC1C(=O)Nc3ccccc31)C2(C)C` (stereo partly drawn) [Compound 226, (1S,2S,5S)—N-[1-cyano-2-(2-oxoindolin-3-yl)ethyl]-3-[(2S)-3,3-dimethyl-2-[(2,2,2-trifluoroacetyl)amino]butanoyl]-6,6-dimethyl-3-azabicyclo[3.1.0]hexane-2-carboxamide], the IC50 was under 10 nM.

As to `CC(C)CCN(C(=O)[C@@H]1[C@@H]2[C@H](CN1C(=O)[C@@H](NC(=O)C(F)(F)F)C(C)(C)C)C2(C)C)[C@H](C#N)C[C@@H]1C(=O)Nc2ccccc21` [Compound 247, (1R,2S,5S)-N-[(1S)-1-cyano-2-(2-oxoindolin-3-yl)ethyl]-3-[(2S)-3,3-dimethyl-2-[(2,2,2-trifluoroacetyl)amino]butanoyl]-N-isopentyl-6,6-dimethyl-3-azabicyclo[3.1.0]hexane-2-carboxamide], the 50% inhibitory concentration (IC50) is at least 1000 nM.

On to `CCCN(C(=O)[C@@H]1[C@@H]2[C@H](CN1C(=O)[C@@H](NC(=O)C(F)(F)F)C(C)(C)C)C2(C)C)[C@H](C#N)C[C@@H]1C(=O)Nc2ccccc21` [Compound 248, (1R,2S,5S)-N-[(1S)-1-cyano-2-(2-oxoindolin-3-yl)ethyl]-3-[(2S)-3,3-dimethyl-2-[(2,2,2-trifluoroacetyl)amino]butanoyl]-6,6-dimethyl-N-propyl-3-azabicyclo[3.1.0]hexane-2-carboxamide], for which the half-inhibitory concentration (IC50) is at least 1000 nM.

For the compound `CC(C)(C)[C@H](NC(=O)C(F)(F)F)C(=O)N1C[C@H]2[C@@H]([C@H]1C(=O)NC(C#N)CC1C(=O)Nc3ncccc31)C2(C)C` (stereo partly shown) [Compound 249], the IC50 was 500 to 1000 nM.

In the case of `CC(C)(C)[C@H](NC(=O)C(F)(F)F)C(=O)N1C[C@H]2[C@@H]([C@H]1C(=O)NC(C#N)CCC1C(=O)Nc3ccccc31)C2(C)C` (stereo partly drawn) [Compound 250, (1R,2S,5S)—N-[1-Cyano-3-(2-oxoindolin-3-yl)propyl]-6,6-dimethyl-3-[(2S)-3,3-dimethyl-2-[(2,2,2-trifluoroacetyl)amino]butanoyl]-3-azabicyclo[3.1.0]hexane-2-carboxamide], the half-maximal inhibitory concentration (IC50) is 500 to 1000 nM.

Turning to `CC(C)(C)[C@H](NC(=O)C(F)(F)F)C(=O)N1C[C@H]2[C@H]([C@H]1C(=O)N[C@H](C#N)Cn1nnc3ccccc31)C2(C)C` [Compound 308, (1S,2S,5S)-N-[(1S)-2-(benzotriazol-1-yl)-1-cyano-ethyl]-3-[(2S)-3,3-dimethyl-2-[(2,2,2-trifluoroacetyl)amino]butanoyl]-6,6-dimethyl-3-azabicyclo[3.1.0]hexane-2-carboxamide], the IC50 was at least 1000 nM.

Usually IC50 stands for the concentration that gives 50% inhibition.
